Source: ChEMBL document CHEMBL3585245, “Synthesis and antiproliferative evaluation of 9-methoxy-6-(piperazin-1-yl)-11H-indeno[1,2-c]quinoline-11-one derivatives. Part 4” (Medchemcomm, 2014)
Calls of active or inactive are those of the source. No cut-off for these calls is given here.

Test system: Detroit 551
Assay: Antiproliferative activity against human Detroit 551 cells incubated for 72 hrs by MTT assay
Type: functional, cell-based
Settings: Detroit 551, 72 h

SMILES | IC50 [µM]
CNCC(O)CN1CCN(c2nc3ccccc3c3c2-c2ccc(OC)cc2C3=O)CC1 (stereo unspecified) | 9.4
COc1ccc2c(c1)C(=O)c1c-2c(N2CCN(CC(O)CN(C)C)CC2)nc2ccccc12 (stereo unspecified) | 2.58
COc1ccc2c(c1)C(=O)c1c-2c(N2CCN(C(=O)CNCCO)CC2)nc2ccccc12 | 8.78
COc1ccc2c(c1)C(=O)c1c-2c(N2CCN(C(=O)CCNCCCN(C)C)CC2)nc2ccccc12 | 6.42
COc1ccc2c(c1)C(=O)c1c-2c(N2CCN(C(=O)CCNCCO)CC2)nc2ccccc12 | 8.38
COc1ccc2c(c1)C(=O)c1c-2c(N2CCN(C(=O)CNCCN(C)C)CC2)nc2ccccc12 | 4.59
COc1ccc2c(c1)C(=O)c1c-2c(N2CCN(C(=O)CN3CCNCC3)CC2)nc2ccccc12 | 2.55
CC[C@@]1(O)C(=O)OCc2c1cc1n(c2=O)Cc2cc3ccccc3nc2-1 [CAMPTOTHECIN] | 0.99

Test system: not listed separately
Assay: Antiproliferative activity against human 786-O cells incubated for 72 hrs by MTT assay
Type: functional, cell-based
Settings: 786-0, 72 h

SMILES | IC50 [µM]
COc1ccc2c(c1)/C(=N\O)c1c-2c(N2CCNCC2)nc2ccccc12 | 1.2
CNCC(O)CN1CCN(c2nc3ccccc3c3c2-c2ccc(OC)cc2C3=O)CC1 (stereo unspecified) | 6.4
COc1ccc2c(c1)C(=O)c1c-2c(N2CCN(CC(O)CN(C)C)CC2)nc2ccccc12 (stereo unspecified) | 6.8
COc1ccc2c(c1)C(=O)c1c-2c(N2CCN(C(=O)CNCCO)CC2)nc2ccccc12 | 6.7
COc1ccc2c(c1)C(=O)c1c-2c(N2CCN(C(=O)CCN3CCOCC3)CC2)nc2ccccc12 | > 30
COc1ccc2c(c1)C(=O)c1c-2c(N2CCN(C(=O)CCNCCCN(C)C)CC2)nc2ccccc12 | 5.9
COc1ccc2c(c1)C(=O)c1c-2c(N2CCN(C(=O)CCNCCO)CC2)nc2ccccc12 | 2.03
COc1ccc2c(c1)C(=O)c1c-2c(N2CCN(C(=O)CNCCN(C)C)CC2)nc2ccccc12 | 9.37
COc1ccc2c(c1)C(=O)c1c-2c(N2CCN(C(=O)CN3CCNCC3)CC2)nc2ccccc12 | 4
CC[C@@]1(O)C(=O)OCc2c1cc1n(c2=O)Cc2cc3ccccc3nc2-1 [CAMPTOTHECIN] | 0.015
COc1ccc2c(c1)C(=O)c1c-2c(N2CCN(C(=O)CN3CCOCC3)CC2)nc2ccccc12 | > 30

Test system: Nucleic Acid
Assay: Induction of DNA intercalation of negative supercoiled Escherichia coli pBR322 DNA at 10 uM incubated for 12 hrs by ethidium bromide staining based DNA mobility assay
Type: nucleic-acid assay
Settings: not given

Activity | SMILES
Active | COc1ccc2c(c1)/C(=N\OCCN1CCCC1)c1c-2c(O)nc2ccccc12

Test system: HeLa
Assay: Antiproliferative activity against human HeLa cells incubated for 72 hrs by MTT assay
Type: functional, cell-based
Settings: not given

SMILES | IC50 [µM]
COc1ccc2c(c1)C(=O)c1c-2c(N2CCN(C(=O)CCN3CCOCC3)CC2)nc2ccccc12 | 14.3
COc1ccc2c(c1)C(=O)c1c-2c(N2CCN(C(=O)CCNCCCN(C)C)CC2)nc2ccccc12 | 5.43
COc1ccc2c(c1)C(=O)c1c-2c(N2CCN(C(=O)CNCCN(C)C)CC2)nc2ccccc12 | 8.17
COc1ccc2c(c1)C(=O)c1c-2c(N2CCN(C(=O)CN3CCNCC3)CC2)nc2ccccc12 | > 30
CC[C@@]1(O)C(=O)OCc2c1cc1n(c2=O)Cc2cc3ccccc3nc2-1 [CAMPTOTHECIN] | 0.18
COc1ccc2c(c1)C(=O)c1c-2c(N2CCN(C(=O)CN3CCOCC3)CC2)nc2ccccc12 | 18

Now from value to compound:

IC50 [µM] | SMILES
2.35 | COc1ccc2c(c1)/C(=N\O)c1c-2c(N2CCNCC2)nc2ccccc12
4.64 | CNCC(O)CN1CCN(c2nc3ccccc3c3c2-c2ccc(OC)cc2C3=O)CC1 (stereo unspecified)
2.47 | COc1ccc2c(c1)C(=O)c1c-2c(N2CCN(CC(O)CN(C)C)CC2)nc2ccccc12 (stereo unspecified)
4.74 | COc1ccc2c(c1)C(=O)c1c-2c(N2CCN(C(=O)CNCCO)CC2)nc2ccccc12
3.13 | COc1ccc2c(c1)C(=O)c1c-2c(N2CCN(C(=O)CCNCCO)CC2)nc2ccccc12

Test system: AGS
Assay: Antiproliferative activity against human AGS cells incubated for 72 hrs by MTT assay
Type: functional, cell-based
Settings: not given

SMILES | IC50 [µM]
COc1ccc2c(c1)C(=O)c1c-2c(N2CCN(C(=O)CCN3CCOCC3)CC2)nc2ccccc12 | 12
COc1ccc2c(c1)C(=O)c1c-2c(N2CCN(C(=O)CCNCCCN(C)C)CC2)nc2ccccc12 | 2.8
COc1ccc2c(c1)C(=O)c1c-2c(N2CCN(C(=O)CNCCN(C)C)CC2)nc2ccccc12 | 14.1
COc1ccc2c(c1)C(=O)c1c-2c(N2CCN(C(=O)CN3CCNCC3)CC2)nc2ccccc12 | 3.37
CC[C@@]1(O)C(=O)OCc2c1cc1n(c2=O)Cc2cc3ccccc3nc2-1 [CAMPTOTHECIN] | 23.8
COc1ccc2c(c1)C(=O)c1c-2c(N2CCN(C(=O)CN3CCOCC3)CC2)nc2ccccc12 | 21.4

More lines, now with the values ahead:

IC50 [µM] | SMILES
1.74 | COc1ccc2c(c1)/C(=N\O)c1c-2c(N2CCNCC2)nc2ccccc12
9.58 | CNCC(O)CN1CCN(c2nc3ccccc3c3c2-c2ccc(OC)cc2C3=O)CC1 (stereo unspecified)
7.86 | COc1ccc2c(c1)C(=O)c1c-2c(N2CCN(CC(O)CN(C)C)CC2)nc2ccccc12 (stereo unspecified)
6.55 | COc1ccc2c(c1)C(=O)c1c-2c(N2CCN(C(=O)CNCCO)CC2)nc2ccccc12
3.67 | COc1ccc2c(c1)C(=O)c1c-2c(N2CCN(C(=O)CCNCCO)CC2)nc2ccccc12

Test system: NCI-H1299
Assay: Antiproliferative activity against human H1299 cells incubated for 72 hrs by MTT assay
Type: functional, cell-based
Settings: NCI-H1299, 72 h

SMILES | IC50 [µM]
COc1ccc2c(c1)C(=O)c1c-2c(N2CCN(C(=O)CCN3CCOCC3)CC2)nc2ccccc12 | 18.7
COc1ccc2c(c1)C(=O)c1c-2c(N2CCN(C(=O)CCNCCCN(C)C)CC2)nc2ccccc12 | 5.44
COc1ccc2c(c1)C(=O)c1c-2c(N2CCN(C(=O)CNCCN(C)C)CC2)nc2ccccc12 | 6.48
COc1ccc2c(c1)C(=O)c1c-2c(N2CCN(C(=O)CN3CCNCC3)CC2)nc2ccccc12 | 5.32
CC[C@@]1(O)C(=O)OCc2c1cc1n(c2=O)Cc2cc3ccccc3nc2-1 [CAMPTOTHECIN] | 3.14
COc1ccc2c(c1)C(=O)c1c-2c(N2CCN(C(=O)CN3CCOCC3)CC2)nc2ccccc12 | > 30

Second part, the compound after the results:

IC50 [µM] | SMILES
5.72 | COc1ccc2c(c1)/C(=N\O)c1c-2c(N2CCNCC2)nc2ccccc12
6.89 | CNCC(O)CN1CCN(c2nc3ccccc3c3c2-c2ccc(OC)cc2C3=O)CC1 (stereo unspecified)
6.84 | COc1ccc2c(c1)C(=O)c1c-2c(N2CCN(CC(O)CN(C)C)CC2)nc2ccccc12 (stereo unspecified)
5.41 | COc1ccc2c(c1)C(=O)c1c-2c(N2CCN(C(=O)CNCCO)CC2)nc2ccccc12
5.67 | COc1ccc2c(c1)C(=O)c1c-2c(N2CCN(C(=O)CCNCCO)CC2)nc2ccccc12

Test system: not listed separately
Assay: Antiproliferative activity against human SKHep cells incubated for 72 hrs by MTT assay
Type: functional, cell-based
Settings: not given

SMILES | IC50 [µM]
COc1ccc2c(c1)/C(=N\O)c1c-2c(N2CCNCC2)nc2ccccc12 | 3.75
CNCC(O)CN1CCN(c2nc3ccccc3c3c2-c2ccc(OC)cc2C3=O)CC1 (stereo unspecified) | 3.44
COc1ccc2c(c1)C(=O)c1c-2c(N2CCN(CC(O)CN(C)C)CC2)nc2ccccc12 (stereo unspecified) | 2.22
COc1ccc2c(c1)C(=O)c1c-2c(N2CCN(C(=O)CNCCO)CC2)nc2ccccc12 | 6.64
COc1ccc2c(c1)C(=O)c1c-2c(N2CCN(C(=O)CCN3CCOCC3)CC2)nc2ccccc12 | 15.1
COc1ccc2c(c1)C(=O)c1c-2c(N2CCN(C(=O)CCNCCCN(C)C)CC2)nc2ccccc12 | 8.6
COc1ccc2c(c1)C(=O)c1c-2c(N2CCN(C(=O)CCNCCO)CC2)nc2ccccc12 | 4.51
COc1ccc2c(c1)C(=O)c1c-2c(N2CCN(C(=O)CNCCN(C)C)CC2)nc2ccccc12 | 16
COc1ccc2c(c1)C(=O)c1c-2c(N2CCN(C(=O)CN3CCNCC3)CC2)nc2ccccc12 | 2.22
CC[C@@]1(O)C(=O)OCc2c1cc1n(c2=O)Cc2cc3ccccc3nc2-1 [CAMPTOTHECIN] | 0.22
COc1ccc2c(c1)C(=O)c1c-2c(N2CCN(C(=O)CN3CCOCC3)CC2)nc2ccccc12 | 19.9

Test system: MDA-MB-231
Assay: Antiproliferative activity against human MDA-MB-231 cells incubated for 72 hrs by MTT assay
Type: functional, cell-based
Settings: MDA-MB-231, 72 h

SMILES | IC50 [µM]
COc1ccc2c(c1)C(=O)c1c-2c(N2CCN(C(=O)CCN3CCOCC3)CC2)nc2ccccc12 | 21.9
COc1ccc2c(c1)C(=O)c1c-2c(N2CCN(C(=O)CCNCCCN(C)C)CC2)nc2ccccc12 | 5.7
COc1ccc2c(c1)C(=O)c1c-2c(N2CCN(C(=O)CNCCN(C)C)CC2)nc2ccccc12 | 6.15
COc1ccc2c(c1)C(=O)c1c-2c(N2CCN(C(=O)CN3CCNCC3)CC2)nc2ccccc12 | 5.45
CC[C@@]1(O)C(=O)OCc2c1cc1n(c2=O)Cc2cc3ccccc3nc2-1 [CAMPTOTHECIN] | 2.11
COc1ccc2c(c1)C(=O)c1c-2c(N2CCN(C(=O)CN3CCOCC3)CC2)nc2ccccc12 | > 30

Continued, values first:

IC50 [µM] | SMILES
5.87 | COc1ccc2c(c1)/C(=N\O)c1c-2c(N2CCNCC2)nc2ccccc12
6.05 | CNCC(O)CN1CCN(c2nc3ccccc3c3c2-c2ccc(OC)cc2C3=O)CC1 (stereo unspecified)
6.11 | COc1ccc2c(c1)C(=O)c1c-2c(N2CCN(CC(O)CN(C)C)CC2)nc2ccccc12 (stereo unspecified)
5.9 | COc1ccc2c(c1)C(=O)c1c-2c(N2CCN(C(=O)CNCCO)CC2)nc2ccccc12
6.08 | COc1ccc2c(c1)C(=O)c1c-2c(N2CCN(C(=O)CCNCCO)CC2)nc2ccccc12

Test system: SAS
Assay: Antiproliferative activity against human SAS cells incubated for 72 hrs by MTT assay
Type: functional, cell-based
Settings: not given

SMILES | IC50 [µM]
COc1ccc2c(c1)/C(=N\O)c1c-2c(N2CCNCC2)nc2ccccc12 | 6.1
CNCC(O)CN1CCN(c2nc3ccccc3c3c2-c2ccc(OC)cc2C3=O)CC1 (stereo unspecified) | 7.4
COc1ccc2c(c1)C(=O)c1c-2c(N2CCN(CC(O)CN(C)C)CC2)nc2ccccc12 (stereo unspecified) | 6.9
COc1ccc2c(c1)C(=O)c1c-2c(N2CCN(C(=O)CNCCO)CC2)nc2ccccc12 | 11.3
COc1ccc2c(c1)C(=O)c1c-2c(N2CCN(C(=O)CCN3CCOCC3)CC2)nc2ccccc12 | > 30
COc1ccc2c(c1)C(=O)c1c-2c(N2CCN(C(=O)CCNCCCN(C)C)CC2)nc2ccccc12 | 13.5
COc1ccc2c(c1)C(=O)c1c-2c(N2CCN(C(=O)CCNCCO)CC2)nc2ccccc12 | 9.1
COc1ccc2c(c1)C(=O)c1c-2c(N2CCN(C(=O)CNCCN(C)C)CC2)nc2ccccc12 | 19.5
COc1ccc2c(c1)C(=O)c1c-2c(N2CCN(C(=O)CN3CCNCC3)CC2)nc2ccccc12 | 7.4
CC[C@@]1(O)C(=O)OCc2c1cc1n(c2=O)Cc2cc3ccccc3nc2-1 [CAMPTOTHECIN] | 6
COc1ccc2c(c1)C(=O)c1c-2c(N2CCN(C(=O)CN3CCOCC3)CC2)nc2ccccc12 | > 30
